Data published in US20110053773A1, “METHODS OF IMPROVING NUTRITIONAL VALUE OF PLANTS” (UNIVERSITY OF TENNESSEE RESEARCH FOUNDATION, priority 2009, published 2011).

Key:
[1] = system: kale 'Red Russian'; test: Content analysis of kale: protein, amino acids, fiber, fatty acids, minerals (Example 4, Tables 12-14); type: in vivo; settings: 28 DA-A; for Alanine, Percent Increase over the Untreated Check (on a % dry matter basis) / Aspartic acid, Percent Increase over the Untreated Check (on a % dry matter basis) / Cysteine, Percent Increase over the Untreated Check (on a % dry matter basis) / Glutamic acid, Percent Increase over the Untreated Check (on a % dry matter basis) / Glycine, Percent Increase over the Untreated Check (on a % dry matter basis) / Iso-leucine, Percent Increase over the Untreated Check (on a % dry matter basis) / Leucine, Percent Increase over the Untreated Check (on a % dry matter basis) / Lysine, Percent Increase over the Untreated Check (on a % dry matter basis) / Methionine, Percent Increase over the Untreated Check (on a % dry matter basis) / Proline, Percent Increase over the Untreated Check (on a % dry matter basis) / Threonine, Percent Increase over the Untreated Check (on a % dry matter basis) / Total Amino acids, Percent Increase over the Untreated Check (on a % dry matter basis) / Total Protein, Percent Increase over the Untreated Check (on a % dry matter basis) / Valine, Percent Increase over the Untreated Check (on a % dry matter basis): chlorothalonil ###
Method: (§1) Greenhouse and laboratory studies were conducted to ascertain the tolerance and nutritional quality differences following postemergence applications of the insecticide chlorpyrifos, the fungicide chlorothalonil, the PGRs mepiquat-chloride and paclobutrazol, and the safeners napthalic anhydride and isoxadifen-ethyl on kale ‘Red Russian’ and basil ‘Genovese’. Visual injury was rated based on general phytotoxicity, chlorosis, and visual stunting and each measurement was based on a percent scale from 0 to 100 where 0 equals no visual response and 100 equals complete plant death. Kale and basil were both harvested approximately 4 weeks after treatments and plants were pooled over replicates for content analysis of crude protein, crude amino acid content, acid detergent fiber, neutral detergent fiber, total fatty acids, and/or key mineral content (including Na, Ca, P, Mg, K, Fe, Mn, Zn, and Cu). In addition, the amounts of key individual amino acids (aspartic acid, threonine, glutamic acid, proline, glycine, cysteine, valine, leucine, isoleucine, methionine, and lysine) and composite classifications of fatty acid (saturated fatty acids, monounsaturated fatty acids, polyunsaturated fatty acids) were also analyzed from these sub-samples for kale (Tables 10-14).

[2] = system: basil ‘Genovese’; test: Yield, fresh weight of basil after insecticide, fungicide, PGRs and safeners (Example 4, Table 10); type: in vivo; settings: DA-A, check 31.8
Method: as §1

[3] = system: basil 'Genovese'; test: Content analysis of basil: protein, minerals (Example 4, Tables 10-11); type: in vivo; settings: 28 DA-A, rates g ai/ha: chlropyrifos 1120, chlorothalonil 2630, paclobutrazol 3.23, mepiquat-chloride 12.3, Isoxadifen 8, Napthalic anhydride 264, + NIS 0.25 % v/v
Summary of the method: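 Greenhouse postemergence applications of chlorpyrifos, chlorothalonil, mepiquat-chloride, paclobutrazol, napthalic anhydride or isoxadifen-ethyl. Visual injury (phytotoxicity, chlorosis, stunting) scored 0–100%, 0 = no response, 100 = plant death. Harvest about 4 weeks after treatment; replicates pooled for protein, mineral, amino acid, fiber and fatty acid analysis.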

[4] = system: kale 'Red Russian'; test: Visual injury of kale after insecticide, fungicide, PGRs, safeners (Example 4)
Method: as §1

[5] = system: basil 'Genovese'; test: Visual injury of basil after insecticide, fungicide, PGRs, safeners (Example 4)
Method: as §1

[6] = system: kale ‘Red Russian’; test: Yield, fresh weight of kale after insecticide, fungicide and PGRs (Example 4, Table 12); type: in vivo; settings: 28 DA-A, Untreated Check 106.9
Method: as §1

[7] = first-listed rate g ai/ha: chlropyrifos ###, paclobutrazol 3.2, mepiquat-chloride 12, + NIS 0.3 % v/v
[8] = rates g ai/ha: chlropyrifos 1120, chlorothalonil 2630, paclobutrazol 3.23, mepiquat-chloride 12.3, + NIS 0.25 % v/v
[9] = rates g ai/ha: chlropyrifos 3370, chlorothalonil 7900, paclobutrazol 9.7, mepiquat-chloride 37, + NIS 0.25 % v/v
[10] = second-listed rate g ai/ha: chlropyrifos ###, paclobutrazol 9.7, mepiquat-chloride 37, + NIS 0.3 % v/v
[11] = 7 DA-A, rates g ai/ha: chlropyrifos 1120, chlorothalonil 2630, paclobutrazol 3.23, mepiquat-chloride 12.3, + NIS 0.25 % v/v
[12] = 7 DA-A, rates g ai/ha: chlropyrifos 3370, chlorothalonil 7900, paclobutrazol 9.7, mepiquat-chloride 37, + NIS 0.25 % v/v
[13] = 14 DA-A, rates g ai/ha: chlropyrifos 1120, chlorothalonil 2630, paclobutrazol 3.23, mepiquat-chloride 12.3, + NIS 0.25 % v/v
[14] = 14 DA-A, rates g ai/ha: chlropyrifos 3370, chlorothalonil 7900, paclobutrazol 9.7, mepiquat-chloride 37, + NIS 0.25 % v/v
[15] = 28 DA-A, rates g ai/ha: chlropyrifos 1120, chlorothalonil 2630, paclobutrazol 3.23, mepiquat-chloride 12.3, + NIS 0.25 % v/v
[16] = 28 DA-A, rates g ai/ha: chlropyrifos 3370, chlorothalonil 7900, paclobutrazol 9.7, mepiquat-chloride 37, + NIS 0.25 % v/v
[17] = 7 DA-A, rates g ai/ha: chlropyrifos 1120, chlorothalonil 2630, paclobutrazol 3.23, mepiquat-chloride 12.3, Isoxadifen 8, Napthalic anhydride 264, + NIS 0.25 % v/v
[18] = 7 DA-A, rates g ai/ha: chlropyrifos 3370, chlorothalonil 7900, paclobutrazol 9.7, mepiquat-chloride 37, Isoxadifen 16, Napthalic anhydride 527, + NIS 0.25 % v/v
[19] = 14 DA-A, rates g ai/ha: chlropyrifos 1120, chlorothalonil 2630, paclobutrazol 3.23, mepiquat-chloride 12.3, Isoxadifen 8, Napthalic anhydride 264, + NIS 0.25 % v/v
[20] = 14 DA-A, rates g ai/ha: chlropyrifos 3370, chlorothalonil 7900, paclobutrazol 9.7, mepiquat-chloride 37, Isoxadifen 16, Napthalic anhydride 527, + NIS 0.25 % v/v
[21] = 28 DA-A, rates g ai/ha: chlropyrifos 1120, chlorothalonil 2630, paclobutrazol 3.23, mepiquat-chloride 12.3, Isoxadifen 8, Napthalic anhydride 264, + NIS 0.25 % v/v
[22] = 28 DA-A, rates g ai/ha: chlropyrifos 3370, chlorothalonil 7900, paclobutrazol 9.7, mepiquat-chloride 37, Isoxadifen 16, Napthalic anhydride 527, + NIS 0.25 % v/v

Compound: CCOP(=S)(OCC)Oc1nc(Cl)c(Cl)cc1Cl [chlropyrifos]
- Alanine, Percent Increase over the Untreated Check (on a % dry matter basis) [1, 7]: −1 % check
- Aspartic acid, Percent Increase over the Untreated Check (on a % dry matter basis) [1, 7]: 0 % check
- Cysteine, Percent Increase over the Untreated Check (on a % dry matter basis) [1, 7]: 0 % check
- Glutamic acid, Percent Increase over the Untreated Check (on a % dry matter basis) [1, 7]: 5 % check
- Glycine, Percent Increase over the Untreated Check (on a % dry matter basis) [1, 7]: −4 % check
- Iso-leucine, Percent Increase over the Untreated Check (on a % dry matter basis) [1, 7]: 0 % check
- Leucine, Percent Increase over the Untreated Check (on a % dry matter basis) [1, 7]: 0 % check
- Lysine, Percent Increase over the Untreated Check (on a % dry matter basis) [1, 7]: 6 % check
- Methionine, Percent Increase over the Untreated Check (on a % dry matter basis) [1, 7]: 2 % check
- Proline, Percent Increase over the Untreated Check (on a % dry matter basis) [1, 7]: −2 % check
- Threonine, Percent Increase over the Untreated Check (on a % dry matter basis) [1, 7]: −2 % check
- Total Amino acids, Percent Increase over the Untreated Check (on a % dry matter basis) [1, 7]: 1 % check
- Total Protein, Percent Increase over the Untreated Check (on a % dry matter basis) [1, 7]: 3 % check
- Valine, Percent Increase over the Untreated Check (on a % dry matter basis) [1, 7]: 1 % check
- ADF, Percent Increase Over the Untreated Check (on a % dry matter basis) [1, 8]: 1 % check
- Calcium, Percent Increase Over the Untreated Check (on a % dry matter basis) [1, 8]: 18 % check
- Copper, Percent Increase Over the Untreated Check (on a % dry matter basis) [1, 8]: 50 % check
- Iron, Percent Increase Over the Untreated Check (on a % dry matter basis) [1, 8]: 33 % check
- Magnesium, Percent Increase Over the Untreated Check (on a % dry matter basis) [1, 8]: 11 % check
- Manganese, Percent Increase Over the Untreated Check (on a % dry matter basis) [1, 8]: 39 % check
- NDF, Percent Increase Over the Untreated Check (on a % dry matter basis) [1, 8]: −8 % check
- Phosphorous, Percent Increase Over the Untreated Check (on a % dry matter basis) [1, 8]: 9 % check
- Potassium, Percent Increase Over the Untreated Check (on a % dry matter basis) [1, 8]: 4 % check
- Sodium, Percent Increase Over the Untreated Check (on a % dry matter basis) [1, 8]: 13 % check
- Zinc, Percent Increase Over the Untreated Check (on a % dry matter basis) [1, 8]: 18 % check
- ADF, Percent Increase Over the Untreated Check (on a % dry matter basis) [1, 9]: 9 % check
- Calcium, Percent Increase Over the Untreated Check (on a % dry matter basis) [1, 9]: 0 % check
- Copper, Percent Increase Over the Untreated Check (on a % dry matter basis) [1, 9]: 28 % check
- Iron, Percent Increase Over the Untreated Check (on a % dry matter basis) [1, 9]: 3 % check
- Magnesium, Percent Increase Over the Untreated Check (on a % dry matter basis) [1, 9]: 3 % check
- Manganese, Percent Increase Over the Untreated Check (on a % dry matter basis) [1, 9]: 16 % check
- NDF, Percent Increase Over the Untreated Check (on a % dry matter basis) [1, 9]: 1 % check
- Phosphorous, Percent Increase Over the Untreated Check (on a % dry matter basis) [1, 9]: 7 % check
- Potassium, Percent Increase Over the Untreated Check (on a % dry matter basis) [1, 9]: 1 % check
- Sodium, Percent Increase Over the Untreated Check (on a % dry matter basis) [1, 9]: 45 % check
- Zinc, Percent Increase Over the Untreated Check (on a % dry matter basis) [1, 9]: 10 % check
- Alanine, Percent Increase over the Untreated Check (on a % dry matter basis) [1, 10]: 6 % check
- Aspartic acid, Percent Increase over the Untreated Check (on a % dry matter basis) [1, 10]: 7 % check
- Cysteine, Percent Increase over the Untreated Check (on a % dry matter basis) [1, 10]: 6 % check
- Glutamic acid, Percent Increase over the Untreated Check (on a % dry matter basis) [1, 10]: 12 % check
- Glycine, Percent Increase over the Untreated Check (on a % dry matter basis) [1, 10]: 3 % check
- Iso-leucine, Percent Increase over the Untreated Check (on a % dry matter basis) [1, 10]: 6 % check
- Leucine, Percent Increase over the Untreated Check (on a % dry matter basis) [1, 10]: 6 % check
- Lysine, Percent Increase over the Untreated Check (on a % dry matter basis) [1, 10]: 11 % check
- Methionine, Percent Increase over the Untreated Check (on a % dry matter basis) [1, 10]: 0 % check
- Proline, Percent Increase over the Untreated Check (on a % dry matter basis) [1, 10]: 9 % check
- Threonine, Percent Increase over the Untreated Check (on a % dry matter basis) [1, 10]: 4 % check
- Total Amino acids, Percent Increase over the Untreated Check (on a % dry matter basis) [1, 10]: 7 % check
- Total Protein, Percent Increase over the Untreated Check (on a % dry matter basis) [1, 10]: 5 % check
- Valine, Percent Increase over the Untreated Check (on a % dry matter basis) [1, 10]: 7 % check
- Yield Fresh weight ([2]; rates g ai/ha: chlropyrifos 1120, chlorothalonil 2630, paclobutrazol 3.23, mepiquat-chloride 12.3, Isoxadifen 8, Napthalic anhydride 264, + NIS 0.25 % v/v): 24.6 grams
- Yield Fresh weight ([2]; rates g ai/ha: chlropyrifos 3370, chlorothalonil 7900, paclobutrazol 9.7, mepiquat-chloride 37, Isoxadifen 16, Napthalic anhydride 527, + NIS 0.25 % v/v): 32.9 grams
- ADF, Percent Increase Over the Untreated Check (on a % dry matter basis) [3]: −12 % check
- Calcium, Percent Increase Over the Untreated Check (on a % dry matter basis) [3]: 7 % check
- Copper, Percent Increase Over the Untreated Check (on a % dry matter basis) [3]: 8 % check
- Iron, Percent Increase Over the Untreated Check (on a % dry matter basis) [3]: 108 % check
- Magnesium, Percent Increase Over the Untreated Check (on a % dry matter basis) [3]: 12 % check
- Manganese, Percent Increase Over the Untreated Check (on a % dry matter basis) [3]: 28 % check
- NDF, Percent Increase Over the Untreated Check (on a % dry matter basis) [3]: −8 % check
- Phosphorous, Percent Increase Over the Untreated Check (on a % dry matter basis) [3]: 11 % check
- Potassium, Percent Increase Over the Untreated Check (on a % dry matter basis) [3]: 12 % check
- Protein, Percent Increase Over the Untreated Check (on a % dry matter basis) [3]: 20 % check
- Sodium, Percent Increase Over the Untreated Check (on a % dry matter basis) [3]: 83 % check
- Soluble protein, Percent Increase Over the Untreated Check (on a % dry matter basis) [3]: 196 % check
- Zinc, Percent Increase Over the Untreated Check (on a % dry matter basis) [3]: 33 % check
- Phytotoxicity Chlorosis [4, 11]: 1%
- Phytotoxicity General [4, 11]: 14%
- Phytotoxicity Stunting [4, 11]: 9%
- Phytotoxicity Chlorosis [4, 12]: 0%
- Phytotoxicity General [4, 12]: 13%
- Phytotoxicity Stunting [4, 12]: 6%
- Phytotoxicity Chlorosis [4, 13]: 15%
- Phytotoxicity General [4, 13]: 4%
- Phytotoxicity Stunting [4, 13]: 9%
- Phytotoxicity Chlorosis [4, 14]: 13%
- Phytotoxicity General [4, 14]: 5%
- Phytotoxicity Stunting [4, 14]: 10%
- Phytotoxicity Chlorosis [4, 15]: 6%
- Phytotoxicity General [4, 15]: 4%
- Phytotoxicity Stunting [4, 15]: 8%
- Phytotoxicity Chlorosis [4, 16]: 3%
- Phytotoxicity General [4, 16]: 3%
- Phytotoxicity Stunting [4, 16]: 6%
- Phytotoxicity Chlorosis [5, 17]: 8%
- Phytotoxicity General [5, 17]: 2%
- Phytotoxicity Stunting [5, 17]: 5%
- Phytotoxicity Chlorosis [5, 18]: 10%
- Phytotoxicity General [5, 18]: 2%
- Phytotoxicity Stunting [5, 18]: 13%
- Phytotoxicity Chlorosis [5, 19]: 3%
- Phytotoxicity General [5, 19]: 7%
- Phytotoxicity Stunting [5, 19]: 10%
- Phytotoxicity Chlorosis [5, 20]: 8%
- Phytotoxicity General [5, 20]: 2%
- Phytotoxicity Stunting [5, 20]: 10%
- Phytotoxicity Chlorosis [5, 21]: 5%
- Phytotoxicity General [5, 21]: 10%
- Phytotoxicity Stunting [5, 21]: 8%
- Phytotoxicity Chlorosis [5, 22]: 7%
- Phytotoxicity General [5, 22]: 2%
- Phytotoxicity Stunting [5, 22]: 12%
- Yield Fresh weight [6, 8]: 108.2 grams
- Yield Fresh weight [6, 9]: 110.1 grams
